From article PMC11200976, “Pitavastatin Calcium Confers Fungicidal Properties to Fluconazole by Inhibiting Ubiquinone Biosynthesis and Generating Reactive Oxygen Species” (Antioxidants, 2024)
Structures can show the parent of a compound that is named as a salt.

Each compound was assayed on C. albicans (assay: Broth microdilution assay of synergistic lethality with 4 μg/mL FLC (recovery on drug-free YPD)). Details: not given.
Assay type: cell-based, Candida albicans

**Q.** For `Br.NC(=O)C(c1ccccc1)(c1ccccc1)[C@@H]1CCN(CCc2ccc3c(c2)CCO3)C1` [Darifenacin (hydrobromide)], which Synergistic lethal concentrations is on record?
**A.** 100 µM

Same assay, conditions: concentration of the compound that is synergistically lethal with 4 μg/mL FLC; C. albicans; recovery on drug-free YPD

**Q.** How did the Synergistic lethal concentrations turn out when `Cc1onc(-c2ccccc2)c1-c1ccc(S(N)(=O)=O)cc1` [Valdecoxib] was run?
**A.** 100 µM

**Q.** How did the Synergistic lethal concentrations turn out when `Nc1c2ccccc2nc2ccccc12` [9-Aminoacridine] was run?
**A.** 100 µM

**Q.** Which Synergistic lethal concentrations does the source give for `CCCCC(CC)COC(=O)CC(C(=O)OCC(CC)CCCC)S(=O)(=O)[O-].[Na+]` (stereo not shown) [Docusate (Sodium)] here?
**A.** 100 µM

**Q.** Which Synergistic lethal concentrations does the source give for `C[C@@H](NCCCc1cccc(C(F)(F)F)c1)c1cccc2ccccc12` [Cinacalcet] here?
**A.** 100 µM

**Q.** How did the Synergistic lethal concentrations turn out when `O=C(O)c1cc2ccccc2c(Cc2c(O)c(C(=O)O)cc3ccccc23)c1O.OCCOCCN1CCN(C(c2ccccc2)c2ccc(Cl)cc2)CC1` [Hydroxyzine (pamoate)] was run?
**A.** 100 µM

**Q.** How did the Synergistic lethal concentrations turn out when `CN(C)C/C=C/C(=O)Nc1cc2c(Nc3ccc(F)c(Cl)c3)ncnc2cc1O[C@H]1CCOC1` [Afatinib] was run?
**A.** 100 µM

**Q.** Which Synergistic lethal concentrations does the source give for `Cl.OC(CCN1CCCCC1)(c1ccccc1)C1CCCCC1` (stereo not shown) [Trihexyphenidyl (hydrochloride)] here?
**A.** 100 µM

**Q.** For `CCOC(=O)c1cncn1[C@H](C)c1ccccc1.Cl` [Etomidate (hydrochloride)], which Synergistic lethal concentrations is on record?
**A.** 100 µM

**Q.** With `O=C(CCCN1CCC(O)(c2ccc(Cl)cc2)CC1)c1ccc(F)cc1` [Haloperidol] as the compound, how does the Synergistic lethal concentrations read?
**A.** 100 µM

**Q.** `O=C(O)CCC(=O)O.O=C(O[C@H]1CN2CCC1CC2)N1CCc2ccccc2[C@@H]1c1ccccc1` [Solifenacin (Succinate)] was tested. Which Synergistic lethal concentrations did it give?
**A.** 100 µM

**Q.** With `Cl.Cl.OCCN1CCN(CCC=C2c3ccccc3Sc3ccc(C(F)(F)F)cc32)CC1` (mixture of isomers) [Flupentixol dihydrochloride] as the compound, how does the Synergistic lethal concentrations read?
**A.** 100 µM

**Q.** For `OCCN1CCN(CCCN2c3ccccc3Sc3ccc(Cl)cc32)CC1` [Perphenazine], which Synergistic lethal concentrations is on record?
**A.** 25 µM

**Q.** For `Cc1cc(Nc2ncc(Cl)c(Nc3ccccc3S(=O)(=O)C(C)C)n2)c(OC(C)C)cc1C1CCNCC1.Cl.Cl` [Ceritinib dihydrochloride], which Synergistic lethal concentrations is on record?
**A.** 12.5 µM

**Q.** Which Synergistic lethal concentrations does the source give for `CCCCCCOC(=O)N=C(N)c1ccc(NCc2nc3cc(C(=O)N(CCC(=O)OCC)c4ccccn4)ccc3n2C)cc1` [Dabigatran etexilate] here?
**A.** 6.25 µM

**Q.** `CN1[C@@H]2CC[C@H]1C[C@@H](OC(c1ccccc1)c1ccccc1)C2.CS(=O)(=O)O` [Benztropine (mesylate)] was tested. Which Synergistic lethal concentrations did it give?
**A.** 100 µM

**Q.** How did the Synergistic lethal concentrations turn out when `CC(C)c1nc(N(C)S(C)(=O)=O)nc(-c2ccc(F)cc2)c1/C=C/[C@@H](O)C[C@@H](O)CC(=O)[O-].CC(C)c1nc(N(C)S(C)(=O)=O)nc(-c2ccc(F)cc2)c1/C=C/[C@@H](O)C[C@@H](O)CC(=O)[O-].[Ca+2]` [Rosuvastatin (Calcium)] was run?
**A.** 50 µM

**Q.** `O=C(O)C(c1ccccc1)(c1ccccc1)c1ccccc1.OCc1cc([C@@H](O)CNCCCCCCOCCOCc2c(Cl)cccc2Cl)ccc1O` [Vilanterol (trifenatate] was tested. Which Synergistic lethal concentrations did it give?
**A.** 100 µM

**Q.** Which Synergistic lethal concentrations does the source give for `C[C@@H](NCCCc1cccc(C(F)(F)F)c1)c1cccc2ccccc12.Cl` [Cinacalcet (hydrochloride)] here?
**A.** 100 µM

**Q.** How did the Synergistic lethal concentrations turn out when `CCCOc1ccc(S(=O)(=O)N2CCN(CCO)CC2)cc1-c1nc2c(CCC)cn(CC)c2c(=O)[nH]1.Cl.Cl` [Mirodenafil (dihydrochloride)] was run?
**A.** 100 µM

**Q.** `CCOC(=O)C1=C(COCCN)NC(C)=C(C(=O)OC)C1c1ccccc1Cl.O=C(O)/C=C\C(=O)O` (stereo not shown) [Amlodipine (maleate)] was tested. Which Synergistic lethal concentrations did it give?
**A.** 100 µM

**Q.** With `CC(C)(C)c1cc(NC(=O)Nc2ccc(-c3cn4c(n3)sc3cc(OCCN5CCOCC5)ccc34)cc2)no1` [Quizartinib] as the compound, how does the Synergistic lethal concentrations read?
**A.** 6.25 µM

**Q.** Which Synergistic lethal concentrations does the source give for `C=CC(=O)Nc1cc(Nc2nccc(-c3cn(C)c4ccccc34)n2)c(OC)cc1N(C)CCN(C)C` [Osimertinib] here?
**A.** 100 µM

**Q.** How did the Synergistic lethal concentrations turn out when `Cc1ccc(O)c([C@H](CCN(C(C)C)C(C)C)c2ccccc2)c1` [Tolterodine] was run?
**A.** 100 µM

**Q.** Which Synergistic lethal concentrations does the source give for `Oc1c(I)cc(Cl)c2cccnc12` [Clioquinol] here?
**A.** 12.5 µM

**Q.** `CC(C)(CO)c1cc2cc(NC(=O)C3(c4ccc5c(c4)OC(F)(F)O5)CC3)c(F)cc2n1C[C@@H](O)CO` [Tezacaftor] was tested. Which Synergistic lethal concentrations did it give?
**A.** 100 µM

**Q.** How did the Synergistic lethal concentrations turn out when `CC(C)n1c(/C=C/C(O)CC(O)CC(=O)[O-])c(-c2ccc(F)cc2)c2ccccc21.[Na+]` (stereo not shown) [Fluvastatin (sodium)] was run?
**A.** 6.25 µM

**Q.** `CN(C)CC/C=C1/c2ccccc2Sc2ccc(Cl)cc21` [Chlorprothixene] was tested. Which Synergistic lethal concentrations did it give?
**A.** 100 µM

**Q.** How did the Synergistic lethal concentrations turn out when `COc1cc(C)c2c(Oc3cccc(C(F)(F)F)c3)c(OC)cc(NC(C)CCCN)c2n1.O=C(O)CCC(=O)O` (stereo not shown) [Tafenoquine (Succinate)] was run?
**A.** 25 µM

**Q.** For `COc1cc(Nc2c(C#N)cnc3cc(OCCCN4CCN(C)CC4)c(OC)cc23)c(Cl)cc1Cl` [Bosutinib], which Synergistic lethal concentrations is on record?
**A.** 25 µM

**Q.** For `C=C/C=C/C[C@@H](C)[C@@H](O)[C@H]1C(=O)N[C@@H](CC)C(=O)N(C)CC(=O)N(C)[C@@H](CC(C)C)C(=O)N[C@@H](C(C)C)C(=O)N(C)[C@@H](CC(C)C)C(=O)N[C@@H](C)C(=O)N[C@H](C)C(=O)N(C)[C@@H](CC(C)C)C(=O)N(C)[C@@H](CC(C)C)C(=O)N(C)[C@@H](C(C)C)C(=O)N1C` [Voclosporin], which Synergistic lethal concentrations is on record?
**A.** 0.1953 µM

**Q.** With `CNCCCC1c2ccccc2C=Cc2ccccc21.Cl` [Protriptyline (hydrochloride)] as the compound, how does the Synergistic lethal concentrations read?
**A.** 100 µM

**Q.** Which Synergistic lethal concentrations does the source give for `CCCCc1oc2ccc(NS(C)(=O)=O)cc2c1C(=O)c1ccc(OCCCN(CCCC)CCCC)cc1.Cl` [Dronedarone (Hydrochloride)] here?
**A.** 100 µM

**Q.** `C[C@@H](OC[C@@]1(c2ccccc2)CC[C@]2(CCC(=O)N2)CN1)c1cc(C(F)(F)F)cc(C(F)(F)F)c1` [Rolapitant] was tested. Which Synergistic lethal concentrations did it give?
**A.** 12.5 µM

**Q.** `Cn1ncnc1[C@H]1c2n[nH]c(=O)c3cc(F)cc(c23)N[C@@H]1c1ccc(F)cc1` [Talazoparib tosylate] was tested. Which Synergistic lethal concentrations did it give?
**A.** 100 µM

**Q.** With `CC(C(=O)[O-])c1cccc(Oc2ccccc2)c1.CC(C(=O)[O-])c1cccc(Oc2ccccc2)c1.O.O.[Ca+2]` (stereo not shown) [Fenoprofen (Calcium hydrate)] as the compound, how does the Synergistic lethal concentrations read?
**A.** 100 µM

**Q.** With `CO[C@]1(C(=O)N[C@@H](C)c2ccc(-n3cc(F)cn3)nc2)CC[C@H](c2nc(C)cc(Nc3cc(C)[nH]n3)n2)CC1` [Pralsetinib] as the compound, how does the Synergistic lethal concentrations read?
**A.** 100 µM

**Q.** Which Synergistic lethal concentrations does the source give for `COC(=O)N[C@H](C(=O)N1CC2(CC2)C[C@H]1c1nc(-c2ccc3c(c2)C(F)(F)c2cc(-c4ccc5[nH]c([C@@H]6[C@H]7CC[C@H](C7)N6C(=O)[C@@H](NC(=O)OC)C(C)C)nc5c4)ccc2-3)c[nH]1)C(C)C` [Ledipasvir] here?
**A.** 100 µM

**Q.** `CC(C)OC(=O)CCC/C=C\C[C@@H]1[C@@H](/C=C/[C@@H](O)COc2cccc(C(F)(F)F)c2)[C@H](O)C[C@@H]1O` [Travoprost] was tested. Which Synergistic lethal concentrations did it give?
**A.** 100 µM

**Q.** With `CN1CCN(C2=Nc3cc(Cl)ccc3Nc3ccccc32)CC1` [Clozapine] as the compound, how does the Synergistic lethal concentrations read?
**A.** 100 µM
